The target in test [1] is 5-hydroxytryptamine receptor 6 (Homo sapiens, UniProt P50406). Format: cell membranes, HeLa, Membrane. To be noted: hela. Further: in other assays of this panel Not Active means under 50% inhibition at 10 µM.
The nature of test [2]: DRUGMATRIX: GABAA, Flunitrazepam, Central radioligand binding (ligand: [3H] Flunitrazepam). The settings on record: Not Active = under 50% inhibition at 10 µM. Format: cell membranes, Rattus norvegicus, Wistar, Brain, Membrane.
A further test has as its target Nitric oxide synthase 1 (Rattus norvegicus, UniProt P29476). Type of test: tissue-based, Cerebellum. Further: in other assays of this panel Not Active means under 50% inhibition at 10 µM.
Another test addresses T1, Cathepsin G (Homo sapiens, UniProt P08311).
T1 sequence (P08311 whole entry): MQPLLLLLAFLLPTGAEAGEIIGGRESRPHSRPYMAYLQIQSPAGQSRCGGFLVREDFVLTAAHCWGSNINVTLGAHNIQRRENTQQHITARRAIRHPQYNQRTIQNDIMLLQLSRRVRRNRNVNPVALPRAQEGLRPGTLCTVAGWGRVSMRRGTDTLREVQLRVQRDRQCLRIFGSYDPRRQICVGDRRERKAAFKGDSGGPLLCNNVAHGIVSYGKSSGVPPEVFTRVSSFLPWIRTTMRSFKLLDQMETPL
Type of test: tissue-based. The settings on record: neutrophil.

The target of test [3] is T2, C-X-C chemokine receptor type 1 (Homo sapiens, UniProt P25024). Further: in other assays of this panel Not Active means under 50% inhibition at 10 µM.
T2 sequence (P25024 whole entry): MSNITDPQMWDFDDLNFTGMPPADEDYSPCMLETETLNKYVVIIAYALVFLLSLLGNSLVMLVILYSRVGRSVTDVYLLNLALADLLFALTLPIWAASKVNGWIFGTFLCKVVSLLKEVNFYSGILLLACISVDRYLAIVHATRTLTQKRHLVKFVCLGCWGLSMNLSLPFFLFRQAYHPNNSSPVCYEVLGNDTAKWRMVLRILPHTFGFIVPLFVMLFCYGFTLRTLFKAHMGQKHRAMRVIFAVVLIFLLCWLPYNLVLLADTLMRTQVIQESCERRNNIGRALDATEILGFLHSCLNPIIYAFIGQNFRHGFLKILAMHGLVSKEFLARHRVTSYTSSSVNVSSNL

In the next test the target is T3, B2 bradykinin receptor (Homo sapiens, UniProt P30411). Further: in other assays of this panel Not Active means under 50% inhibition at 10 µM.
T3 sequence (P30411 whole entry): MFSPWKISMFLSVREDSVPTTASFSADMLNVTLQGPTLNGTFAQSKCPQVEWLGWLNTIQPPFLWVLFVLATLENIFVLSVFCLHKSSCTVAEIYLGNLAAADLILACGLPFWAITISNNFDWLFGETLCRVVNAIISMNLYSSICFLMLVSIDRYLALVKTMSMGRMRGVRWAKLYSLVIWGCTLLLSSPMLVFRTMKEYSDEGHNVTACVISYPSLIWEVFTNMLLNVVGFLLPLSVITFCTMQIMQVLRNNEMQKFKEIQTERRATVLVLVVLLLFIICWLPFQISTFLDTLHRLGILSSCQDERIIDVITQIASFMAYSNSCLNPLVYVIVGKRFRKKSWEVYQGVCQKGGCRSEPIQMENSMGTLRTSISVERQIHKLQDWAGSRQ
Type of test: cell membranes, Membrane. The settings on record: chem-1.

The nature of test [4]: DRUGMATRIX: Phosphodiesterase PDE4 enzyme inhibition (substrate: [3H]cAMP + cAMP). To be noted: u-937, Not Active = under 50% inhibition at 10 µM.

Broadly, the IC50 is the concentration that inhibits the measured activity by half.

5-hydroxytryptamine receptor 6, sequence (P50406 whole entry): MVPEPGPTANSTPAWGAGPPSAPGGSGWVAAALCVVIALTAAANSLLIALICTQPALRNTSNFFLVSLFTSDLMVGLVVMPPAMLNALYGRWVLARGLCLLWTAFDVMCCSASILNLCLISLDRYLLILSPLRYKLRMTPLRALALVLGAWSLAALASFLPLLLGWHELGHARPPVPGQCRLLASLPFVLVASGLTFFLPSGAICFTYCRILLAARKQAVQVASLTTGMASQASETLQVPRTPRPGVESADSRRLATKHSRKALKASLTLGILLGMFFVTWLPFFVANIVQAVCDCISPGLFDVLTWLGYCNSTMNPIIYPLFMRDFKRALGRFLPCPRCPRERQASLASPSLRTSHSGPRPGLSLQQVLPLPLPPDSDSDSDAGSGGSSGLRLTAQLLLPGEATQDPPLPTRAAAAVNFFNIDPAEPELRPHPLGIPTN
Nitric oxide synthase 1, sequence (P29476 whole entry): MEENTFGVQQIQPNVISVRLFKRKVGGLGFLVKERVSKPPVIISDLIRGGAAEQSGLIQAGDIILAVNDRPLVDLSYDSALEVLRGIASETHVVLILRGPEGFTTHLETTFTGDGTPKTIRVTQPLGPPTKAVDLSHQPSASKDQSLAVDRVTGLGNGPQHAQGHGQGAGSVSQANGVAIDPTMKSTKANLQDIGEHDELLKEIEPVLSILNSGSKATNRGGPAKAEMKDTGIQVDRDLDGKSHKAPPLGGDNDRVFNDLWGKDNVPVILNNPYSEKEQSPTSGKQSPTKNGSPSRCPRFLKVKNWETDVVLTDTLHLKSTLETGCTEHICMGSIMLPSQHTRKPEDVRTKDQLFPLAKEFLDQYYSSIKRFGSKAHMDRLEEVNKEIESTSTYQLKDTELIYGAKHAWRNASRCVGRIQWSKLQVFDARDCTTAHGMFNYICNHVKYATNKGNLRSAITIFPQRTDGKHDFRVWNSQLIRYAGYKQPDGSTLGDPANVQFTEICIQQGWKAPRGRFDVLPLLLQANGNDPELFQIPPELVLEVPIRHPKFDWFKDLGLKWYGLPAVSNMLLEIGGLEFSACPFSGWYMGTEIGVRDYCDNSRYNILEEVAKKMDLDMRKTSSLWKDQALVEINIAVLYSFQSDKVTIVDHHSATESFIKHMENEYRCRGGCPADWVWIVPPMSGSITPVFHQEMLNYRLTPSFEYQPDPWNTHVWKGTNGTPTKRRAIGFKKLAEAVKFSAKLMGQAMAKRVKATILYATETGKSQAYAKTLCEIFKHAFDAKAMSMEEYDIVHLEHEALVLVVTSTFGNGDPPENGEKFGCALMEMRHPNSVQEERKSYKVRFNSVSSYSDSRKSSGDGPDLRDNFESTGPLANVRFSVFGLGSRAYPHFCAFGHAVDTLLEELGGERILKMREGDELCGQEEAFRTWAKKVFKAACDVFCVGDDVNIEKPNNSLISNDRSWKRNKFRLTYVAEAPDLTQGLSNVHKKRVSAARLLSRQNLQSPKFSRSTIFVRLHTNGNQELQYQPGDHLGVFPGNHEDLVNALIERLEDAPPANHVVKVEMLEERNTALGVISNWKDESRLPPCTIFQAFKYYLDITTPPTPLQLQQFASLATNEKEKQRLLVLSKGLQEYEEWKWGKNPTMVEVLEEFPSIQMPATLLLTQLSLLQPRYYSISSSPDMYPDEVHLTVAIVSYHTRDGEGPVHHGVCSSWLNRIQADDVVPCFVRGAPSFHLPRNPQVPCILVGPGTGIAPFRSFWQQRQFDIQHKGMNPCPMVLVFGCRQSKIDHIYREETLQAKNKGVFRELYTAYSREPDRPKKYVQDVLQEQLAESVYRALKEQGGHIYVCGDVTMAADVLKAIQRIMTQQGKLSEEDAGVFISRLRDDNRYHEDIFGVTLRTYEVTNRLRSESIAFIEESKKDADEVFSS

Take `Nc1cc(N2CCCCC2)nc(N)[n+]1[O-]` [MINOXIDIL]: the IC50 result (in test [1]; in test [2]; at Nitric oxide synthase 1; against Cathepsin G; in test [3]; on B2 bradykinin receptor) was “Not Active” in each case. Also, the half-inhibitory concentration (IC50) entry in test [4] is recorded as “Not Active”. For the same compound, the Ki result in test [2] and in test [4] was “Not Active” in each case.

As for `CO[C@H]1/C=C/O[C@@]2(C)Oc3c(C)c(O)c4c(O)c(c(/C=N/N5CCN(C6CCCC6)CC5)c(O)c4c3C2=O)NC(=O)/C(C)=C\C=C\[C@H](C)[C@H](O)[C@@H](C)[C@@H](O)[C@@H](C)[C@H](OC(C)=O)[C@@H]1C` [RIFAPENTINE], the IC50 result (in test [1]; in test [2]; on Nitric oxide synthase 1; at Cathepsin G; in test [3]; against B2 bradykinin receptor) was “Not Active” throughout. For the same compound, the IC50 entry in test [4] was “Not Active”. The Ki result in test [2] and in test [4] was “Not Active” in each case.

Take `CCCCOc1cc(CC2CNC(=O)N2)ccc1OC` (stereo unspecified) [RO-201724]: the IC50 result (in test [1]; in test [2]; against Nitric oxide synthase 1; against Cathepsin G; in test [3]; against B2 bradykinin receptor) was “Not Active” each time. Further, the IC50 in test [4] (read-out: IC50) was 11.3 µM. The Ki entry in test [2] is “Not Active”.

For the compound `CC[C@@H](C(=O)[C@@H](C)[C@@H](O)[C@H](C)[C@@H]1O[C@@H]([C@@H](CC)C(=O)O)CC[C@@H]1C)[C@H]1O[C@]2(C=C[C@@H](O)[C@]3(CC[C@@](C)([C@H]4CC[C@](O)(CC)[C@H](C)O4)O3)O2)[C@H](C)C[C@@H]1C` [SALINOMYCIN], the IC50 entry (in test [1]; in test [2]; against Nitric oxide synthase 1; against Cathepsin G; in test [3]; at B2 bradykinin receptor) was “Not Active” in each case. The IC50 result in test [4] is listed as “Not Active”. The Ki result in test [2] and in test [4] was “Not Active” in each case.

With `O=C(Oc1ccccc1C(=O)O)c1ccccc1O` [SALSALATE], the 50% inhibitory concentration (IC50) entry (in test [1]; in test [2]; against Nitric oxide synthase 1; at Cathepsin G; in test [3]; against B2 bradykinin receptor) was “Not Active” in each case. Moreover, the IC50 entry in test [4] is listed as “Not Active”. Also, the Ki entry in test [2] and in test [4] was “Not Active” in each case.

With `O=C(O)c1cn(-c2ccc(F)cc2)c2cc(N3CCNCC3)c(F)cc2c1=O` [SARAFLOXACIN], the IC50 result (in test [1]; in test [2]; at Nitric oxide synthase 1; against Cathepsin G; in test [3]; on B2 bradykinin receptor) was “Not Active” each time. For the same compound, the IC50 entry in test [4] is recorded as “Not Active”. Further, the Ki result in test [2] and in test [4] was “Not Active” each time.

With `CC(C)NCC(O)c1ccc(NS(C)(=O)=O)cc1` (stereo unspecified) [SOTALOL], the IC50 result (in test [1]; in test [2]; on Nitric oxide synthase 1; on Cathepsin G; in test [3]; at B2 bradykinin receptor) was “Not Active” each time. The half-inhibitory concentration (IC50) entry in test [4] was “Not Active”. For the same compound, the Ki result in test [2] and in test [4] was “Not Active” in each case.

With `O.O.O.O.O.O.[Cl-].[Cl-].[Sr+2]` [STRONTIUM CHLORIDE HEXAHYDRATE], the IC50 result (in test [1]; in test [2]; at Nitric oxide synthase 1; on Cathepsin G; in test [3]; at B2 bradykinin receptor) was “Not Active” throughout. In addition, the IC50 entry in test [4] is listed as “Not Active”. For the same compound, the Ki entry in test [2] and in test [4] was “Not Active” each time.

Take `O=C1C(CC[S+]([O-])c2ccccc2)C(=O)N(c2ccccc2)N1c1ccccc1` (stereo unspecified) [SULFINPYRAZONE]: the IC50 result (in test [1]; in test [2]; on Nitric oxide synthase 1; against Cathepsin G; in test [3]; at B2 bradykinin receptor) was “Not Active” each time. Also, in test [4], the IC50 result is reported as “Not Active”. The Ki entry in test [2] and in test [4] was “Not Active” throughout.

With `NC(=O)N1C(=O)/C(=C(\O)c2cccs2)c2cc(Cl)ccc21` [TENIDAP], the IC50 entry (in test [1]; in test [2]; against Nitric oxide synthase 1; against Cathepsin G; in test [3]; against B2 bradykinin receptor) was “Not Active” in each case. Besides, in test [4], the concentration for half-maximal inhibition (IC50) result is listed as “Not Active”. Also, the Ki entry in test [2] and in test [4] was “Not Active” throughout.

In the case of `COc1cc2nc(N3CCN(C(=O)C4CCCO4)CC3)nc(N)c2cc1OC` (stereo unspecified) [TERAZOSIN], the IC50 entry (in test [1]; in test [2]; on Nitric oxide synthase 1; at Cathepsin G; in test [3]; at B2 bradykinin receptor) was “Not Active” each time. The IC50 result in test [4] was “Not Active”. The Ki result in test [2] and in test [4] was “Not Active” throughout.

With `CN(C/C=C/C#CC(C)(C)C)Cc1cccc2ccccc12` [TERBINAFINE], the IC50 entry (in test [1]; in test [2]; against Nitric oxide synthase 1; against Cathepsin G; in test [3]; against B2 bradykinin receptor) was “Not Active” in each case. In addition, in test [4], the IC50 entry is on record as “Not Active”. Also, the Ki result in test [2] and in test [4] was “Not Active” each time.

For `CCCCNc1ccc(C(=O)OCCN(C)C)cc1` [TETRACAINE], the IC50 entry (in test [1]; in test [2]; on Nitric oxide synthase 1; against Cathepsin G; in test [3]; at B2 bradykinin receptor) was “Not Active” each time. In addition, the IC50 result in test [4] is recorded as “Not Active”. The Ki entry in test [2] and in test [4] was “Not Active” each time.

As to `Cn1c(=O)c2nc[nH]c2n(C)c1=O.O` [THEOPHYLLINE], the IC50 result (in test [1]; in test [2]; at Nitric oxide synthase 1; on Cathepsin G; in test [3]; against B2 bradykinin receptor) was “Not Active” in each case. In addition, in test [4], the IC50 result was “Not Active”. Moreover, the Ki result in test [2] and in test [4] was “Not Active” each time.

Turning to `CS(=O)(=O)c1ccc([C@@H](O)[C@@H](CO)NC(=O)C(Cl)Cl)cc1` [THIAMPHENICOL], the IC50 result (in test [1]; in test [2]; against Nitric oxide synthase 1; at Cathepsin G; in test [3]; at B2 bradykinin receptor) was “Not Active” each time. Besides, the IC50 entry in test [4] is reported as “Not Active”. Also, the Ki result in test [2] and in test [4] was “Not Active” in each case.

For the compound `CCN(CC)CCNC(=O)c1cc(S(C)(=O)=O)ccc1OC` [TIAPRIDE], the IC50 entry (in test [1]; in test [2]; on Nitric oxide synthase 1; against Cathepsin G; in test [3]; against B2 bradykinin receptor) was “Not Active” in each case. The 50% inhibitory concentration (IC50) result in test [4] is listed as “Not Active”. Further, the Ki entry in test [2] and in test [4] was “Not Active” each time.

On to `Clc1ccccc1CN1CCc2sccc2C1` [TICLOPIDINE], for which the IC50 result (in test [1]; in test [2]; against Nitric oxide synthase 1; at Cathepsin G; in test [3]; against B2 bradykinin receptor) was “Not Active” in each case. In test [4], the IC50 entry is recorded as “Not Active”. Further, the Ki entry in test [2] and in test [4] was “Not Active” throughout.

Regarding `NC1CCN(c2nc3c(cc2F)c(=O)c(C(=O)O)cn3-c2ccc(F)cc2F)C1` (stereo unspecified) [TOSUFLOXACIN], the half-inhibitory concentration (IC50) result (in test [1]; in test [2]; against Nitric oxide synthase 1; against Cathepsin G; in test [3]; at B2 bradykinin receptor) was “Not Active” each time. The IC50 entry in test [4] is recorded as “Not Active”. The Ki result in test [2] and in test [4] was “Not Active” throughout.

The values above are taken from ChEMBL document CHEMBL1909046, “DrugMatrix in vitro pharmacology data”.
